One block for each molecule: values may come before it.
Key:
[1] = biological target: T1, 3-phosphoshikimate 1-carboxyvinyltransferase (Escherichia coli K-12, UniProt P0A6D3); assay: Inhibition of Escherichia coli EPSP(5-enolpyruvyl-shikimate-3-phosphate) Synthase
T1 sequence (P0A6D3 whole entry): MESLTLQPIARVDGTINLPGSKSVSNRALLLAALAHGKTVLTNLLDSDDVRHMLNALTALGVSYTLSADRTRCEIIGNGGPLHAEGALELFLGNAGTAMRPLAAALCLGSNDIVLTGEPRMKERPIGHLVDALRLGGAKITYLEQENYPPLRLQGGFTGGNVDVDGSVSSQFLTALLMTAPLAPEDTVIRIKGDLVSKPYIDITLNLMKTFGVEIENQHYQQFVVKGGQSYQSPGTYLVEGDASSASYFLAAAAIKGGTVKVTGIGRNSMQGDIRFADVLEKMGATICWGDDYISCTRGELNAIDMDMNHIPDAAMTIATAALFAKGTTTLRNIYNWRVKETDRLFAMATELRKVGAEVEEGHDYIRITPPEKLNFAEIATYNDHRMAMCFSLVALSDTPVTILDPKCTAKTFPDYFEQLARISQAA

[2] = biological target: T2, 3-phosphoshikimate 1-carboxyvinyltransferase (Escherichia coli K-12) (UniProt P0A6D3); assay: (§1) Enzyme Kinetic activity was calculated against Escherichia coli EPSP(5-enolpyruvyl-shikimate-3-phosphate) Synthase
T2 sequence (whole entry): T1 sequence (P0A6D3 whole entry)

[3] = substrate: C=C(O[C@@H]1CC(C(=O)O)=C[C@@H](O)[C@H]1O)C(=O)O; assay: as §1

Molecule: O=C(O)C1=CC(C(C(=O)O)C(=O)O)CCC1 (stereo not drawn)
IC50 [1]: > 90 mM

Molecule: O=C(O)C1=CC(OCP(=O)(O)O)CCC1 (stereo not drawn)
IC50 [1]: > 90 mM

Molecule: O=C(O)C1=CC(CP(=O)(O)O)CCC1 (stereo not drawn)
IC50 [1]: > 90 mM

Molecule: O=C(O)C1=CC(OC(C(=O)O)C(=O)O)CCC1 (stereo not drawn)
IC50 [1]: 15 mM

Molecule: O=C(O)C1=C/C(=C\P(=O)(O)O)CCC1
IC50 [1]: > 90 mM

Molecule: O=C(O)C1=C/C(=C/P(=O)(O)O)CCC1
IC50 [1]: > 90 mM

B1: 3-phosphoshikimate 1-carboxyvinyltransferase (Escherichia coli K-12), P0A6D3 (protein)
chain: T1 sequence (P0A6D3 whole entry)
Km [3]: 24 mM

More lines, now with the values ahead:

IC50 [1]: > 90 mM
Molecule: O=C(O)CO[C@@H]1CC(C(=O)O)=C[C@@H](O)[C@H]1O

IC50 [1]: 0.1 mM
Molecule: O=C(O)CO[C@@H]1CC(C(=O)O)=C[C@@H](OP(=O)(O)O)[C@H]1O

IC50 [1]: 7.5 mM
Molecule: O=C(O)C1=CC(OP(=O)(O)O)CCC1 (stereo not drawn)

IC50 [1]: > 90 mM
Molecule: O=C(CP(=O)(O)O)O[C@@H]1CC(C(=O)O)=C[C@@H](O)[C@H]1O

k cat [2]: 0.2 s⁻¹
IC50 [1]: > 90 mM
Molecule: C=C(O[C@@H]1CC(C(=O)O)=C[C@@H](O)[C@H]1O)C(=O)O

Source: ChEMBL document CHEMBL1126518, “EPSP synthase inhibitor design II. The importance of the 3-phosphate group for ligand binding at the shikimate-3-phosphate site & the identification of 3-malonate ethers as novel 3-phosphate mimics” (Bioorg Med Chem Lett, 1993)
